In US20240199535A1, “DEUTERATED DHODH INHIBITORS” (priority 2021, published 2024):

What was measured:
SARS-CoV-2 d6-YFP = experiment: Combinatorial drug assessment with EIDD-1931, viral replication inhibition assay; format: cell-based
SARS-CoV-2 = experiment: Antiviral activity on SARS-CoV-2, viral replication (YFP) assay; format: cell-based; details: Severe acute respiratory syndrome coronavirus 2, read-out: EC50 range
in vivo [1] = details: CC7BL/6J, mouse, po, 5 mg/kg
Description: The pharmacokinetics of the compounds of the present invention was evaluated in 3 male and 3 female mice (CC7BL/6J, 8 week old) after oral cassette dosing. Dose was 5 mg/kg, application volume was 5 mL/kg and vehicle was 5% Solutol, 95% NaCl solution (at 0.9% saline concentration). At each designated time point (0, 0.25, 0.5, 1, 2, 4, 8 h after dosing), 20 μL whole blood were collected from the tail vein into Li-heparin tubes, frozen on dry ice within 1-2 minutes of sampling and stored at −20° C. until processed for LC-MS analysis.

in vivo [2] = details: Han Wistar, rat
Description: Rats are provided with a catheter in the jugular vein (2-3 days prior to blood sampling). At each designated time point (0, 1, 2, 4, 8 and 24 h after dosing), 100 μL blood were collected into Li-heparin tubes, stored on ice until centrifugation (10 minutes at 3000 g, 4° C.) and plasma was prepared within 45 min after collection, frozen at −20° C. and stored at this temperature until processed for LC-MS analysis.

in vitro [3] = details: male, rat, microsomes
in vitro [4] = details: human, microsomes

For `[2H]C([2H])([2H])Oc1cccc(-c2cc(F)c(NC(=O)C3=C(C(=O)O)CCC3)c(F)c2)c1` [Example 9, 2-((3,5-Difluoro-3′-(methoxy-d3)-[1,1′-biphenyl]-4-yl)carbamoyl)cyclopent-1-ene-1-carboxylic Acid], the “antiviral effect on SARS-CoV-2 in combination with nucleoside analogue EIDD-1931” value (SARS-CoV-2 d6-YFP) was “synergistic antiviral effects” and the EC50 (SARS-CoV-2) was 10 to 25 µM.
In the case of `COc1cccc(-c2ccc(NC(=O)C3=C(C(=O)O)CCC3)c(F)c2)c1` [Example C26, vidofludimus, reference compound], the AUC (in vivo [1]; female) is reported as 1970 ng·h/mL, the Cmax (in vivo [1]; female) is reported as 745 ng/mL and the half-life (in vivo [1]; female) is reported as 1.7 h. For the same molecule, the AUC (in vivo [1]; male) was 1620 ng·h/mL, the Cmax (in vivo [1]; male) was 789 ng/mL and the half-life (in vivo [1]; male) was 1.7 h. The “% AUCextra” value (in vivo [2]; female, iv, 1 mg/kg) was 12%, the AUC(0-inf) (in vivo [2]; female, iv, 1 mg/kg) was 82900 ng·h/mL and the AUC(0-t) (in vivo [2]; female, iv, 1 mg/kg) was 68600 ng·h/mL. For the same molecule, the C0 (in vivo [2]; female, iv, 1 mg/kg) was 8130 ng/mL, the Cz (in vivo [2]; female, iv, 1 mg/kg) was 939 ng/mL and the Vz/f (in vivo [2]; female, iv, 1 mg/kg) was 0.016 L/kg. For the same molecule, the t1/2z (in vivo [2]; female, iv, 1 mg/kg) was 9.7 h, the tz (in vivo [2]; female, iv, 1 mg/kg) was 24 h and the bioavailability (in vivo [2]; female, po) was 73.8%. For the same molecule, the “% AUCextra” value (in vivo [2]; female, po, 5 mg/kg) was 17%, the AUC(0-inf) (in vivo [2]; female, po, 5 mg/kg) was 297000 ng·h/mL and the AUC(0-t) (in vivo [2]; female, po, 5 mg/kg) was 253000 ng·h/mL. For the same molecule, the CL/F (in vivo [2]; female, po, 5 mg/kg) was 3.7 mL/min/kg, the Cmax (in vivo [2]; female, po, 5 mg/kg) was 21300 ng/mL and the Cz (in vivo [2]; female, po, 5 mg/kg) was 3620 ng/mL. The Tmax (in vivo [2]; female, po, 5 mg/kg) was 2 h, the Vd/F (in vivo [2]; female, po, 5 mg/kg) was 0.016 L/kg and the t1/2z (in vivo [2]; female, po, 5 mg/kg) was 9.1 h. The tz (in vivo [2]; female, po, 5 mg/kg) was 24 h, the “% AUCextra” value (in vivo [2]; male, iv, 1 mg/kg) was 22% and the AUC(0-inf) (in vivo [2]; male, iv, 1 mg/kg) was 47900 ng·h/mL. The AUC(0-t) (in vivo [2]; male, iv, 1 mg/kg) was 43200 ng·h/mL, the C0 (in vivo [2]; male, iv, 1 mg/kg) was 5790 ng/mL and the Cz (in vivo [2]; male, iv, 1 mg/kg) was 421 ng/mL. For the same molecule, the Vz/f (in vivo [2]; male, iv, 1 mg/kg) was 0.009 L/kg, the t1/2z (in vivo [2]; male, iv, 1 mg/kg) was 7.3 h and the tz (in vivo [2]; male, iv, 1 mg/kg) was 24 h. The bioavailability (in vivo [2]; male, po) was 92.7%, the “% AUCextra” value (in vivo [2]; male, po, 5 mg/kg) was 25% and the AUC(0-inf) (in vivo [2]; male, po, 5 mg/kg) was 206000 ng·h/mL. For the same molecule, the AUC(0-t) (in vivo [2]; male, po, 5 mg/kg) was 200000 ng·h/mL, the CL/F (in vivo [2]; male, po, 5 mg/kg) was 3.72 mL/min/kg and the Cmax (in vivo [2]; male, po, 5 mg/kg) was 14900 ng/mL. It also gave a Cz (in vivo [2]; male, po, 5 mg/kg) of 1540 ng/mL, a Tmax (in vivo [2]; male, po, 5 mg/kg) of 2 h and a Vd/F (in vivo [2]; male, po, 5 mg/kg) of 0.007 L/kg. It also gave a t1/2z (in vivo [2]; male, po, 5 mg/kg) of 6.4 h, a tz (in vivo [2]; male, po, 5 mg/kg) of 24 h and a microsomal CLint (in vitro [3]) of 8.48 µL/min/mg. The microsomal CLint (in vitro [4]; both) was 2.27 µL/min/mg, the microsomal CLint (in vitro [4]; female) was 6.58 µL/min/mg and the microsomal CLint (in vitro [4]; male) was 12.6 µL/min/mg.
